Source: patent US20090232735A1, “USE OF FRUCTOSE-BASED THERAPIES FOR THE TREATMENT OF CANCER” (CEDARS-SINAI MEDICAL CENTER, priority 2005, published 2009)

What was measured:
Assay type in all cases: cell-based, human
[1] = test system: AP-1 activation in PANC-1 cells; assay: AP-1 probe binding assay, PANC-1 nuclear extracts; conditions: PANC-1, 5.5 mM fructose, 48 h
Protocol: FIG. 24 depicts luciferase activity of PANC-1 cells and primary culture of surgically resected pancreatic tumor cells in accordance with an embodiment of the present invention. PANC-1 pancreatic cancer cells and a primary culture of a surgically resected pancreatic tumor were incubated in 2 mM glucose, 5.5 mM glucose or 5.5 mM fructose for 48 h, after which nuclear extracts were incubated with a biotinylated AP-1 probe, and detected by an antibody-linked colorimetric method. *, p<0.01
In separate experiments PANC-1 cells, and primary cultures of surgically resected pancreatic tumors were incubated in 2 mM glucose, or 5.5 mM glucose or 5.5 mM fructose for 48 h, after which nuclear extracts were incubated with a biotinylated AP-1 probe in binding buffer. AP-1/AP1 probe complexes were next conjugated to a streptavidin-coated assay plate and detected using an AP-1 specific antibody, followed by binding of a horseradish-peroxidase conjugated secondary antibody, and detection by a colorimetric reagent.

[2] = test system: PANC-1 pancreatic cancer cells; assay: [1,2-13C2] stable isotope metabolic profiling in PANC-1 cells
Protocol: FIG. 28 depicts the metabolism of fructose and glucose in pancreatic cancer cells in accordance with an embodiment of the present invention. Lactate generation from glycolysis (a), and hexose oxidation in the pentose and tricarboxylic acid cycles (b) following treatment of PANC-1 cells with 2 mM glucose, 5.5 mM glucose, and 5.5 mM fructose for 72 h. […] In (b), the ^13C to ^12C ratio in the CO2 released from the PANC-1 cells is presented.
FIG. 29 depicts fatty acid synthesis from glucose versus fructose in accordance with an embodiment of the present invention. Fatty acid synthesis represented by (a), ^13C-labelled oleate, (b) ^13C-labelled arachidic acid, and (c) ^13C-labelled 24-carbon fatty acid fraction following treatment of PANC-1 cells with 2 mM, and 5.5 mM glucose, and 5.5 mM fructose for 72 h. For the fatty acids, the fraction of ^13C-labeled oleate, arachidic acid or 24-carbon fatty acid is expressed as percentage of total oleate, arachidic acid or 24-carbon fatty acids, respectively.
FIG. 30 depicts ribose and deoxyribose synthesis following glucose and fructose treatment in accordance with an embodiment of the present invention.
Metabolism comprises anabolic (converting small molecules into big ones) and catabolic processes (converting food into useful energy), predicts the functional state of a cell, and analyzes the levels of the end products (metabolites) of anabolism and catabolism. […] The inventors employed [1, 2-^13C2] glucose, or [1,2-^13C2] fructose stable isotope-based dynamic metabolic profiling (SiDMAP, Los Angeles, US) to track and quantify changes in glucose, and fructose carbon re-distribution among major metabolic pathways in pancreatic cancer cells (Lee W N, Boros L G, Puigjaner J, Bassilian S, Lim S, Cascante M. Mass istopomer study of transketolase-transaldolase pathways of the pentose cycle with [1,2-^13C2]glucose. Am J Physiol 274:E843-51, 1998; Lee W N, Byerley L O, Bassilian S, Ajie H O, Clark I, Edmond J. Isotopomer study of lipogenesis in human hepatoma cells in culture: contribution of carbon and hydrogen atoms from glucose. […]

[3] = test system: uric acid production in PANC-1 cells; assay: Uricase activity / uric acid production in PANC-1 conditioned medium; conditions: 5.5 mM fructose
Protocol: FIG. 32 depicts uric acid productionin PANC-1 cells in accordance with an embodiment of the present invention. Uric acid production in pancreatic cancer PANC-1 cells following incubation in 2 mM glucose, 5.5 mM glucose, and 5.5 mM fructose for 24 h, 48, 72, and 96 h respectively, p<0.01 5.5 mM fructose versus 5.5 mM glucose.
Based on the metabolomic studies which led the inventors to believe that fructose was metabolized in pancreatic cancer cells in large part to generate nucleic acids, the inventors devised a series of experiments to examine nucleic acid synthesis in the pancreatic cancer cells following either glucose or fructose-treatment. PANC-1 cells were incubated as before in 5.5 mM glucose or fructose for 24 h, following an ELISA-based fluorimetric assay (Amplex Red Uric acid uricase assay kit, Invitrogen) was employed to measure uricase activity in conditioned medium derived from the pancreatic cancer cells (Shi Y, Evans J E, Rock K L. Molecular identification of a danger signal that alerts the immune system to dying cells Nature 425, 516-21, 2003). Uricase activity correlates highly with uric acid production, a purine by-product of nucleic acid synthesis. […] Fluoresence was measured in a fluorescence microplate reader using excitation at 530 nm and detection at 590 nm, and the assay can detect levels as low as 100 nM uric acid.

O=C(CO)[C@@H](O)[C@H](O)[C@H](O)CO [fructose]
AP-1 luciferase reporter activity higher than in 5.5 mM glucose [1]: approximately 40%
pentose phosphate shunt pathway used (oxidative G6PDH vs non-oxidative TKK) ([2]; PANC-1, 5.5 mM sugar, 72 h): preferentially metabolized by TKK
lactate and CO2 production lower for fructose in comparison to glucose ([2]; PANC-1, 13C-labeled sugar, 72 h): 3-4 fold
13C-labeled sugar metabolized for fatty acid synthesis ([2]; PANC-1, 72 h, fructose compared to glucose): comparatively less
uricase activity higher than glucose-treated cells ([3]; 96 h): ~20%
uricase activity higher than glucose-treated cells ([3]; 120 h): ~50%
